# Source: patent US9006246B2, “Tetrahydrocarboline derivative” (Ono Pharmaceutical Co., Ltd., priority 2010, dated 2015)
# Structures can show the parent of a compound that is named as a salt.
# Target: human ENPP2 (Homo sapiens (Human), UniProt Q13822)
# Test: Measurement of human ENPP2 inhibitory activity
# Type: biochemical
# Conditions: 1 μM test compound; 16:0-LPC substrate, 37° C., 24 hours; read-out: ENPP2 inhibition rate(%) (1 μM)
# Description: 10 μL of a test compound solution (10% dimethyl sulfoxide) at each concentration and 40 μL of a 5 μg/mL human ENPP2 solution (buffer A: 100 mmol/L Tris-HCl (pH 9.0), 500 mmol/L NaCl, 5 mmol/L MgCl2, 0.05% Triton X-100) were mixed, 50 μL of a 2 mmol/L 16:0-lysophosphatidylcholine (LPC) solution (buffer A) was further added to react at 37° C. for 24 hours. Subsequently, to 10 μL of the reaction solution was added 90 μL of a measurement buffer (0.5 mmol/L aminoantipyrine, 0.3 mmol/L N-ethyl-N-(2-hydroxy-3-sulfopropyl)-3-methylaniline, 1 U/mL peroxidase, 3 U/mL choline oxidase, 100 mmol/L Tris-HCl (pH 8.5), 5 mmol/L CaCl2) to react at 37° C. for 20 minutes, and spectrophotometric determination was performed at 555 nm.
# Using a standard curve, a choline production amount (enzyme activity) in each test compound was calculated, and the inhibitory activity rate of each test compound was calculated, wherein the enzyme activity in a positive control to which a test compound is not added, was a 0% inhibition rate, and the enzyme activity in a negative control to which a test compound and human ENPP2 are not added, were 100% inhibition. Further, concerning the present compounds shown in Table 3, an IC50 value was calculated from inhibitory activity rate at each concentration.
row,SMILES,inhibition at 1 µM
1,"O=C(CC12CCC(C(=O)O)(CC1)C2)N1CCc2c(n(Cc3ccc(F)cc3)c3ncccc23)C1 [Example 31(188), 4-{2-[9-(4-fluorobenzyl)-5,6,8,9-tetrahydro-7H-pyrido[4′,3′:4,5]pyrrolo[2,3-b]pyridin-7-yl]-2-oxoethyl}bicyclo[2.2.1]heptane-1-carboxylic acid]",98.8%
2,"O=C(CC12CCC(C(=O)O)(CC1)C2)N1CCc2c(n(Cc3ccc(Cl)cc3)c3ncccc23)C1 [Example 31(189), 4-{2-[9-(4-chlorobenzyl)-5,6,8,9-tetrahydro-7H-pyrido[4′,3′:4,5]pyrrolo[2,3-b]pyridin-7-yl]-2-oxoethyl}bicyclo[2.2.1]heptane-1-carboxylic acid]",99.3%

# Results, then the molecule that gave them:
row,inhibition at 1 µM,SMILES
1,96.2%,"COc1cc(CC(=O)N2CCc3c(n(Cc4cc(F)cc(F)c4)c4ncccc34)C2)ccc1C(=O)O [Example 51(23), 4-{2-[9-(3,5-difluorobenzyl)-5,6,8,9-tetrahydro-7H-pyrido[4′,3′:4,5]pyrrolo[2,3-b]pyridin-7-yl]-2-oxoethyl}-2-methoxybenzoic acid]"
2,97.5%,"COc1cc(CC(=O)N2CCc3c(n(Cc4cc(F)c(F)cc4F)c4ncccc34)C2)ccc1C(=O)O [Example 51(24), 2-methoxy-4-{2-oxo-2-[9-(2,4,5-trifluorobenzyl)-5,6,8,9-tetrahydro-7H-pyrido[4′,3′:4,5]pyrrolo[2,3-b]pyridin-7-yl]ethyl}benzoic acid]"

# Same assay, conditions: 16:0-LPC substrate, 37° C., 24 hours
row,SMILES,IC50
1,"O=C(O)CCCCC(=O)N1CCc2c(n(CCCc3ccccc3)c3ccccc23)C1 [Example 3, 6-oxo-6-[9-(3-phenylpropyl)-1,3,4,9-tetrahydro-2H-beta-carbolin-2-yl]hexanoic acid]",34 nM
2,"O=C(C[C@H]1CC[C@H](C(=O)O)CC1)N1CCc2c(n(Cc3ccc(Cl)cc3F)c3ncccc23)C1 [Example 31(24), trans-4-{2-[9-(4-chloro-2-fluorobenzyl)-5,6,8,9-tetrahydro-7H-pyrido[4′,3′:4,5]pyrrolo[2,3-b]pyridin-7-yl]-2-oxoethyl}cyclohexanecarboxylic acid]",5 nM
3,"O=C(O)C1CCCN(CC(=O)N2CCc3c(n(Cc4cccc(F)c4)c4ncccc34)C2)C1 (stereo not shown) [Example 35(2), 1-{2-[9-(3-fluorobenzyl)-5,6,8,9-tetrahydro-7H-pyrido[4′,3′:4,5]pyrrolo[2,3-b]pyridin-7-yl]-2-oxoethyl}-3-piperidinecarboxylic acid]",110 nM
4,"C[C@@H]1CN(CC(=O)N2CCc3c(n(Cc4ccc(Cl)s4)c4ccccc34)C2)C[C@H](C)N1CC(=O)O [Example 35(122), rel-[(2R,6S)-4-(2-{9-[(5-chloro-2-thienyl)methyl]-1,3,4,9-tetrahydro-2H-beta-carbolin-2-yl}-2-oxoethyl)-2,6-dimethyl-1-piperazinyl]acetic acid dihydrochloride]",35 nM

# Further lines, results first:
row,IC50,SMILES
1,26 nM,"C[C@]1(C(=O)O)CC[C@H](CC(=O)N2CCc3c(n(Cc4ccc(F)cc4)c4ncccc34)C2)CC1 [Example 48(8), trans-4-{2-[9-(4-fluorobenzyl)-5,6,8,9-tetrahydro-7H-pyrido[4′,3′:4,5]pyrrolo[2,3-b]pyridin-7-yl]-2-oxoethyl}-1-methylcyclohexanecarboxylic acid]"
2,25 nM,"C[C@]1(C(=O)O)CC[C@H](CC(=O)N2CCc3c(n(Cc4ccc(Cl)cc4)c4ncccc34)C2)CC1 [Example 48(9), trans-4-{2-[9-(4-chlorobenzyl)-5,6,8,9-tetrahydro-7H-pyrido[4′,3′:4,5]pyrrolo[2,3-b]pyridin-7-yl]-2-oxoethyl}-1-methylcyclohexanecarboxylic acid]"
3,7.8 nM,"Cc1cc(CC(=O)N2CCc3c(n(Cc4csc(Cl)c4)c4ncccc34)C2)ccc1C(=O)O [Example 51(48), 4-(2-{9-[(5-chloro-3-thienyl)methyl]-5,6,8,9-tetrahydro-7H-pyrido[4′,3′:4,5]pyrrolo[2,3-b]pyridin-7-yl}-2-oxoethyl)-2-methylbenzoic acid]"

# Test system: SD male rat
# Test: Measurement of urethra internal pressure in rat under anesthesia
# Type: in vivo
# Conditions: rat under urethane anesthesia; intravenous 0.03, 0.1, 0.3 mg/kg; FIG. 2
# Excerpt: A SD male rat (Crl: CD(SD), Charles River Laboratories Japan, Inc., 7-10 weeks old) was anesthetized by subcutaneous administration of 1.5 g/kg urethane at a back of a neck. After neck median incision, a jugular vein catheter for intravenous administration was inserted. A lower abdominal part was median incised, and a urethra was ligated at around pubis. A urethral catheter for measuring a urethra internal pressure, equipped with a collar at a tip and filled with a physiological saline was inserted into a urethra through an incised bladder top, and ligation-fixed at a bladder neck part. The urethral catheter was connected to a pressure transducer (manufactured by Nihon Kohden Corporation), and a urethra internal pressure was measured. […] A urethra internal pressure reduction rate (%) was calculated based on a urethra internal pressure after compound administration, wherein a value obtained by subtracting a postmortem baseline value (minimum value of urethra internal pressure for 10 minutes after administration of somnopentyl) from a urethra internal pressure value before compound administration (0 minute) was 100%.
row,SMILES,urethra internal pressure
1,"O=C(C[C@H]1CC[C@H](C(=O)O)CC1)N1CCc2c(n(Cc3ccc(Cl)cc3F)c3ncccc23)C1 [Example 31(24), trans-4-{2-[9-(4-chloro-2-fluorobenzyl)-5,6,8,9-tetrahydro-7H-pyrido[4′,3′:4,5]pyrrolo[2,3-b]pyridin-7-yl]-2-oxoethyl}cyclohexanecarboxylic acid]",significantly reduced a urethra internal pressure

# Same assay, conditions: rat under urethane anesthesia; intravenous 0.1, 0.3, 1.0 mg/kg; FIG. 1
row,SMILES,urethra internal pressure
1,"O=C(O)CCCCC(=O)N1CCc2c(n(CCCc3ccccc3)c3ccccc23)C1 [Example 3, 6-oxo-6-[9-(3-phenylpropyl)-1,3,4,9-tetrahydro-2H-beta-carbolin-2-yl]hexanoic acid]",significantly reduced a urethra internal pressure
